Bridge positions count the residues as written; N and C are the ends. Square brackets hold non-standard residues; d marks the D form. Ends that are not written are not given here. I, II: the chains in the order shown. 1Nal = N[C@@H](Cc1cccc2ccccc12)C(=O)O; βAla = NCCC(=O)O
Key:
EPO receptor = conditions: single class of binding sites, 300 to 600 per cell surface; cited from earlier work
huEPOR = molecular target: T1, huEPOR (Homo sapiens, UniProt P19235); assay: Ba/F3-huEPOR cell proliferation assay; assay type: cell-based; conditions: for EC50: concentration required to produce 50% of the maximal activity obtained with recombinant erythropoietin
T1 construct: expressed in transfected cells; host or cells: Ba/F3 (murine pro-B line, own knowledge) carrying huEPOR
T1 sequence (P19235 25-508): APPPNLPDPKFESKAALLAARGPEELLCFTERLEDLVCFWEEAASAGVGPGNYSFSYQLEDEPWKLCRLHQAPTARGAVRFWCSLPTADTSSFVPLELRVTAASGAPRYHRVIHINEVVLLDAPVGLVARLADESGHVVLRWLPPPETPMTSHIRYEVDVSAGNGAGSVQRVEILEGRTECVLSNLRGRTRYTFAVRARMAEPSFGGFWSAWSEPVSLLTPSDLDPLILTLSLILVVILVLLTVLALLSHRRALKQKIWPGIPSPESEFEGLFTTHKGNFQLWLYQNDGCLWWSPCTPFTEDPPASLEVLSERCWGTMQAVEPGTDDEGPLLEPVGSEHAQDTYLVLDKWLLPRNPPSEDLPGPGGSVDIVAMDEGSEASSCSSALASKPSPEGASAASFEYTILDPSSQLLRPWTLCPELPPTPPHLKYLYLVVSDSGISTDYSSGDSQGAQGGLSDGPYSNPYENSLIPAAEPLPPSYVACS
Description: The protocol for each assay is described in Wrighton et al. (1997) Nature Biotechnology 15:1261-1265, and in U.S. Pat. Nos. 5,773,569 and 5,830,851, both to Wrighton et al. and cited earlier herein.

EC50 (huEPOR) [nM] | Substance | also measured
 | Erythropoietin [EPO] | Kd (EPO receptor): ~0.8 nM
6 | I: GGTYSCHFGPLT[1Nal]VCRPQGGK-NH2 / II: GGTYSCHFGPLT[1Nal]VCRPQGG (amide I:21-II:C; cysteines drawn unpaired) [Example 1] | 
 | I: GGTYSCHFGPLT[1Nal]VCRPQGGK-NH2 / II: GGTYSCHFGPLT[1Nal]VCRPQGG (disulfide I:6-I:15, II:6-II:15; amide I:21-II:C) [Example 6] | in vitro bioactivity (huEPOR; FIG. 5, Isomer 1 compared with Isomer 2, Isomer 3 and the other compounds): noticeably higher
5 | I: GGTYSCHFGPLT[1Nal]VCRPQGG[βAla]K-NH2 / II: GGTYSCHFGPLT[1Nal]VCRPQGG[βAla] (amide I:22-II:C; cysteines drawn unpaired) [Example 3] | 

— patent US7459522B2 (Affymax, Inc., priority 1999, dated 2008)
